# Experimental data reported in patent US7741344B2, “Process for preparing purified S-BEL and R-BEL and compositions thereof” (Washington University in St. Louis, priority 2002, dated 2010).
# Experiments:
# [1] = tested on: MAPK (ERK2) phosphorylation; test: AVP-induced MAPK phosphorylation in A-10 cells (Western); format: cell-based, rat; settings: 5 μM, 15 min, 1 μM AVP; FIG. 9
# A-10 smooth muscle cells = test: AVP-induced [3H]-arachidonic acid liberation from A-10 cells; format: cell-based, rat; settings: 1 μM AVP, FIG. 5
# Experimental: Quantification of [^3H]-Arachidonic Acid Liberation from A-10 Phospholipids—Rat aortic smooth muscle A-10 cells, cultured in 60 mm dishes (2.5×10^5 cells/dish), were radiolabeled with 0.5 μCi [^3H]-arachidonic acid per dish as previously described (29). Cells were washed once with DMEM containing 0.25% fatty acid free bovine serum albumin followed by two washes with DMEM alone. Cells were then incubated with the indicated concentrations of (R)-, (S)-, rac-BEL, or ethanol vehicle (0.1% final concentration) in DMEM for 20 min. This media was removed and the cells were then incubated with DMEM containing 10% heat-inactivated fetal bovine serum in the absence or presence of 1 μM AVP. In some tests, PMA (1 μM) or DOG (10 μM) was added to the medium containing AVP. After 5 mm, 1 ml of this medium was removed, lipids were extracted into 2 ml of chloroform/methanol/acetic acid (25:24:1 v/v) (38), and the remaining cells were scraped into 1 ml of deionized water prior to lipid extraction as described above. The chloroform layer was evaporated under nitrogen and the extracted lipids were separated by thin layer chromatography (petroleum ether/ethyl ether/glacial acetic acid 70:30:1). Regions containing fatty acids and phospholipids were scraped into vials and radioactivity was quantified by liquid scintillation spectrometry.
# A-10 cells (2.5×10^5 cells/dish) were radiolabeled with [^3H]-arachidonic acid (0.5 μCi/dish) for 20 hrs. After washing to remove unincorporated [^3H]-arachidonic acid, cells were then incubated with either 1 μM or 5 μM (R)-BEL, (S)-BEL, rac-BEL, or ethanol vehicle (0.1%) in DMEM for 20 mm. This media was removed and the cells were then incubated with 3 ml of DMEM containing 10% heat-inactivated fetal bovine serum with or without 1 μM AVP. After 5 min, 1 ml of this medium was removed and lipids were extracted into 2 ml of chloroform/methanol/acetic acid (25:24:1). The remaining cells were scraped into 1 ml of deionized water and total lipids were extracted as described above. The chloroform layer was evaporated under nitrogen and the extracted lipids were separated by TLC. Regions containing fatty acids and phospholipids were scraped into vials and radioactivity was quantified by liquid scintillation spectrometry. Results are representative of four separate tests.
# A-10 cells were radiolabeled with [^3H]-arachidonic acid, washed, and pre-incubated with 5 μM (S)-BEL or ethanol vehicle alone for 15 min as described in FIG. 5. DMEM media containing 10% heat-inactivated fetal bovine serum with or without 1 μM AVP was then added to the cells. After 5 min at 37° C., [^3H]-arachidonic acid released into the media and remaining within the cells (free and incorporated into phospholipids) was extracted into chloroform, separated by TLC, and quantified by liquid scintillation spectrometry as described in “Experimental Procedures”. Results are representative of three separate tests.
SMILES,AVP-induced phosphorylation of ERK2 [1],AVP-induced increase in non-esterified [3H]-arachidonic acid (in words) (A-10 smooth muscle cells; 1 and 5 μM inhibitor),"inhibition of AVP-induced AA release (A-10 smooth muscle cells; 5 μM inhibitor, 20 min pretreatment)"
"O=C1OC(=CBr)CCC1c1cccc2ccccc12 (racemic) [rac-BEL, Racemic (E)-6-(bromomethylene)-3-(1-naphthalenyl)-2H-tetrahydropyran-2-one]",not effected,significantly reduced,
"O=C1O/C(=C/Br)CC[C@@H]1c1cccc2ccccc12 [(R)-BEL, (R)(E)-6-(bromomethylene)-3-(1-naphthalenyl)-2H-tetrahydropyran-2-one]",not effected,,about 10%
